# Test system: Pyrenophora teres
# Assay: In vivo test on Pyrenophora teres (barley net blotch)
# Conditions: 500 ppm, preventive spray on barley plants (Express), grading 12 days after contamination vs control plants
# Method: The active ingredients tested are prepared by homogenisation in a mixture of acetone/tween/DMSO, then diluted with water to obtain the desired active material concentration.
# Barley plants (Express variety), sown on a 50/50 peat soil-pozzolana substrate in starter cups and grown at 12° C., are treated at the 1-leaf stage (10 cm tall) by spraying with the active ingredient prepared as described above. Plants, used as controls, are treated with the mixture of acetone/tween/DMSO/water not containing the active material.
# After 24 hours, the plants are contaminated by spraying them with an aqueous suspension of Pyrenophora teres spores (12,000 spores per ml). The spores are collected from a 12-day-old culture. The contaminated barley plants are incubated for 24 hours at about 20° C. and at 100% relative humidity, and then for 12 days at 80% relative humidity.
# Grading is carried out 12 days after the contamination, in comparison with the control plants.
smiles,measurement,value
CC(Cc1ccc(Cl)cc1)NC(=O)c1ccccc1C(F)(F)F (stereo not shown) [Compound 1],protection,at least 70%

# — patent publication US8314269B2, “N-(1-methyl-2phenylethyl)benzamide derivatives” (Bayer Cropscience AG, priority 2005, dated 2012)
